Reference: patent US11021498B2 (Acorda Therapeutics, Inc., priority 2008, dated 2021)
Values after ≈ are worked out from the molar mass of the structure shown. Read-outs that look alike come from different tables or passages of the source.

Assays:
[1] = background and U.S. Pat. No. 4,322,410; cited from earlier work
[2] = test system: rat hippocampus; conditions: rat hippocampus insulted with quinolinic acid; cited from earlier work
[3] = cited from earlier work
[4] = Solubility of acetaminophen prodrugs in water; type: physicochemical
[5] = test system: myocytes; conditions: guinea pigs, low-flow global myocardial ischemia 30 minutes, then 60 minutes of reperfusion; cited from earlier work
[6] = Goodman and Gillman's; cited from earlier work
[7] = test system: alkaline phosphatase; conditions: requires alkaline phosphatase; cited from earlier work
[8] = Anesthesia and Analgesia 101, 90-96, 2005
[9] = British Journal of Anaesthesia 94 (5): 642-648, 2005
[10] = water, room temperature, read-out: solubility in water at room temperature

| solubility [4, 10] [mg/mL] | Compound | water solubility [1] | local tolerance profile [3, 8] [%] | local tolerance profile [3, 9] [%] | further results |
| --- | --- | --- | --- | --- | --- |
| ~13 (≈ 86 mM) | CC(=O)Nc1ccc(O)cc1 [Acetaminophen, N-(4-hydroxyphenyl)acetamide] | about 1.3 g per 100 mL | 0 | 52 | lipid peroxidation and superoxide anion generation [2]: inhibit both lipid peroxidation and superoxide anion generation; apoptosis in myocytes [5]: decrease apoptosis in myocytes; half-life [6]: about 2 hours |
| ~145 | CC(=O)Nc1ccc(OCOP(=O)(O)O)cc1 [(4-acetamidophenoxy)methyl dihydrogen phosphate] |  |  |  | solubility ([4]; water, solvent water, read-out: Solubility): 145 mg/mL |
|  | CCN(CC)CC(=O)Oc1ccc(NC(C)=O)cc1 [Propacetamol, 4-acetamidophenyl 2-(diethylamino)acetate] |  | 49 | 90 |  |
|  | CC(=O)Nc1ccc(OP(=O)(O)O)cc1 [4-acetamidophenyl dihydrogen phosphate] | 50 g per 100 mL |  |  | time in vitro to yield acetaminophen from the derivative [7]: about 15 hours |
|  | CC(=O)Nc1ccc(OCOP(=O)(O)O)cc1 [Sodium (4-acetamidophenoxy)methyl phosphate] |  |  |  | solubility ([4]; solvent water, phosphate): 160 mg/mL; solubility in water at room temperature ([4]; water, room temperature, phosphate): ~160 mg/mL |
